Where a name gives a salt, the structure may show the parent alone. Blank lines part the entries; values can stand above or below the compound they belong to.
What was measured:
[1] = target: T1, MLTK (ZAK) C22 (Homo sapiens, UniProt Q9NYL2); assay: Blockade of ibrutinib-derived probe 59 labeling of MLTK (gel-based ABPP); format: binding
T1 construct: expressed in transfected cells
Protocol: CuAAC was performed with 20 μM rhodamine-azide (50× stock in DMSO), 1 mM tris(2-carboxyethyl)phosphine hydrochloride (TCEP; fresh 50× stock in water, final concentration=1 mM), ligand (17× stock in DMSO:t-butanol 1:4, final concentration=100 μM) and 1 mM CuSO4 (50× stock in water, final concentration=1 mM). […] Quenched reactions were analyzed by SDS-PAGE and visualized by in-gel fluorescence. […] For MLTK, HEK 293T cells stably overexpressing MTLK^2 were treated with the indicated fragment electrophiles for 1 h, followed by labeling with 59 (1 μl, of 125 μM, final concentration=5 μM) for 1 h. These were followed by CuAAC conjugation to rhodamine-azide and evaluation by SDS-PAGE as described above.

[2] = target: T2, PRMT1 (Homo sapiens, UniProt Q99873); assay: PRMT1 in vitro methylation assay (histone 4, 3H-SAM); format: biochemical; details: pre-treatment with fragment 1 h
T2 construct: Full length PRMT1 subcloned into pET45b (+) (Novagen) was previously generated by the Cravatt lab; inferred from Ni-NTA purification and the pET45b vector; made in house; host or cells: E. coli BL21(DE3)
T2 sequence (Q99873 11-371 limits assumed): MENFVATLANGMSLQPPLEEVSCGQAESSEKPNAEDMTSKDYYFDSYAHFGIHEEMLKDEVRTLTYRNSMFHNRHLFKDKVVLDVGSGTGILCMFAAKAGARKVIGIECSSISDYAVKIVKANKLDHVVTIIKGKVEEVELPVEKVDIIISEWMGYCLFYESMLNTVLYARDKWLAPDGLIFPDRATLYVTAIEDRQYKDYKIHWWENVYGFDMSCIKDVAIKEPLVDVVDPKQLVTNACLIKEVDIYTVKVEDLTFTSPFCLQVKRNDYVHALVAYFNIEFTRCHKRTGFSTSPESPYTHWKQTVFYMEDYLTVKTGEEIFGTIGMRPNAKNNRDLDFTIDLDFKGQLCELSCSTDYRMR
Protocol: PRMT1 assays were conducted as described in Weerapana et al. Nature 468:790-795 (2010). Recombinant human PRMT1 (0.85 μM, wild type or C101S mutant) in 25 μL methylation buffer (20 mM Tris, pH 8.0, 200 mM NaCl, 0.4 mM EDTA) was pre-incubated with indicated fragments for 1 h and methylation activity was monitored after addition of […] of recombinant histone 4 (NEB, M2504S) and ^3H-SAM (2 μCi). Reactions were further incubated for 60 min at ambient temperature and stopped with 4×SDS sample buffer. SDS-PAGE gels were fixed with 10% acetic acid/10% methanol (v/v), washed, and incubated with Amplify reagent (Amersham) before exposing to film at −80° C. for 3 days.

[3] = target: T3, IDH1 (Homo sapiens, UniProt O75874); assay: IDH1 NADP assay; format: biochemical
T3 construct: Full length cDNAs encoding for IDH1 (Open Biosystems, Clone ID: 3880331) and IMPDH2; His6 (C); made in house; host or cells: E. coli BL21(DE3)
T3 sequence (O75874 whole entry): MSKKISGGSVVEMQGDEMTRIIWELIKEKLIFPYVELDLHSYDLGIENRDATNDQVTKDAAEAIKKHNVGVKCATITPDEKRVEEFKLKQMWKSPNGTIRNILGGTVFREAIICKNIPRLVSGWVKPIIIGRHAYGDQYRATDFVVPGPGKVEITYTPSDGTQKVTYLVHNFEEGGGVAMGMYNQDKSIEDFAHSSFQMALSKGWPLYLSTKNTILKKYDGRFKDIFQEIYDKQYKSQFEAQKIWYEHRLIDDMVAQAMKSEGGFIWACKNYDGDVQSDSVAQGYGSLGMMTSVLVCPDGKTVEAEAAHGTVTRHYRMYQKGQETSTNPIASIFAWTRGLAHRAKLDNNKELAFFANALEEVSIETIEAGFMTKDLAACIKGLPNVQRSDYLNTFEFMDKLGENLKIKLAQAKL
Protocol: To 25 μL of this mixture was added 1 μL of the indicated compound (25× stock solution in DMSO) and the lysates were incubated for 1 h at room temperature in clear 96 well plates (Corning® Costar®). […] Absorbance was measured for 45 minutes and the relative activities were calculated from the change in absorbance for the linear portion of the curve.

[4] = system: primary human T cells
[5] = system: Nrf2(+/+) and (-/-) T cells; assay: CD25 expression in Nrf2(+/+) and (-/-) T cells; format: cell-based, mouse; details: 24 h
Protocol: C57BL/6J and Nrf2^-/- mice (Stock No:017009; […]: Jackson Labs) were bred and maintained in a closed breeding facility at The Scripps Research Institute and were 6-8 weeks old when used in experiments. All mice were used in accordance with guidelines from the Institutional Animal Care and Use Committee of The Scripps Research Institute. Spleens were harvested from female mice, perfused with collagenase, and incubated at 37° C. with 5% CO2 for 30 min. After this time, the spleens were homogenized. Cells that passed through a 100 μm cell strainer were collected and washed with RPMI. T cells were isolated from the splenocytes using the EasySepTM Mouse T cell Isolation Kit (19851; […]) according to manufacturer's instructions. 96-well plates were coated with anti-CD3 (1:200; BioXcell) and anti-CD28 (1:500; 302933; BioLegend) in PBS (100 μL/well) overnight at 4° C. The plates were then washed twice with PBS and to each well was added 500,000 primary T cells in 100 μL of RPMI supplemented with 10% FBS, glutamine, and Pen-Strep. Cells were then treated with 100 μL of media containing compound at the indicated concentrations (final well volume of 200 μL). Cells were left at 37° C. in a 5% CO2 incubator for the indicated periods of time and harvested by centrifugation (500 g, 8 min, 4° C.), followed by washing with PBS. […] Data was then analyzed with FlowJo software (Treestar Inc.). […]

[6] = target: CLTC C870 (Q00610) (Homo sapiens, UniProt Q00610); assay: Competitive isoTOP-ABPP in situ; format: cell-based; details: fragment 4 at 100 μM, MDA-MB-231 cells
CLTC C870 (Q00610), sequence (Q00610 whole entry, the tested form may be a part): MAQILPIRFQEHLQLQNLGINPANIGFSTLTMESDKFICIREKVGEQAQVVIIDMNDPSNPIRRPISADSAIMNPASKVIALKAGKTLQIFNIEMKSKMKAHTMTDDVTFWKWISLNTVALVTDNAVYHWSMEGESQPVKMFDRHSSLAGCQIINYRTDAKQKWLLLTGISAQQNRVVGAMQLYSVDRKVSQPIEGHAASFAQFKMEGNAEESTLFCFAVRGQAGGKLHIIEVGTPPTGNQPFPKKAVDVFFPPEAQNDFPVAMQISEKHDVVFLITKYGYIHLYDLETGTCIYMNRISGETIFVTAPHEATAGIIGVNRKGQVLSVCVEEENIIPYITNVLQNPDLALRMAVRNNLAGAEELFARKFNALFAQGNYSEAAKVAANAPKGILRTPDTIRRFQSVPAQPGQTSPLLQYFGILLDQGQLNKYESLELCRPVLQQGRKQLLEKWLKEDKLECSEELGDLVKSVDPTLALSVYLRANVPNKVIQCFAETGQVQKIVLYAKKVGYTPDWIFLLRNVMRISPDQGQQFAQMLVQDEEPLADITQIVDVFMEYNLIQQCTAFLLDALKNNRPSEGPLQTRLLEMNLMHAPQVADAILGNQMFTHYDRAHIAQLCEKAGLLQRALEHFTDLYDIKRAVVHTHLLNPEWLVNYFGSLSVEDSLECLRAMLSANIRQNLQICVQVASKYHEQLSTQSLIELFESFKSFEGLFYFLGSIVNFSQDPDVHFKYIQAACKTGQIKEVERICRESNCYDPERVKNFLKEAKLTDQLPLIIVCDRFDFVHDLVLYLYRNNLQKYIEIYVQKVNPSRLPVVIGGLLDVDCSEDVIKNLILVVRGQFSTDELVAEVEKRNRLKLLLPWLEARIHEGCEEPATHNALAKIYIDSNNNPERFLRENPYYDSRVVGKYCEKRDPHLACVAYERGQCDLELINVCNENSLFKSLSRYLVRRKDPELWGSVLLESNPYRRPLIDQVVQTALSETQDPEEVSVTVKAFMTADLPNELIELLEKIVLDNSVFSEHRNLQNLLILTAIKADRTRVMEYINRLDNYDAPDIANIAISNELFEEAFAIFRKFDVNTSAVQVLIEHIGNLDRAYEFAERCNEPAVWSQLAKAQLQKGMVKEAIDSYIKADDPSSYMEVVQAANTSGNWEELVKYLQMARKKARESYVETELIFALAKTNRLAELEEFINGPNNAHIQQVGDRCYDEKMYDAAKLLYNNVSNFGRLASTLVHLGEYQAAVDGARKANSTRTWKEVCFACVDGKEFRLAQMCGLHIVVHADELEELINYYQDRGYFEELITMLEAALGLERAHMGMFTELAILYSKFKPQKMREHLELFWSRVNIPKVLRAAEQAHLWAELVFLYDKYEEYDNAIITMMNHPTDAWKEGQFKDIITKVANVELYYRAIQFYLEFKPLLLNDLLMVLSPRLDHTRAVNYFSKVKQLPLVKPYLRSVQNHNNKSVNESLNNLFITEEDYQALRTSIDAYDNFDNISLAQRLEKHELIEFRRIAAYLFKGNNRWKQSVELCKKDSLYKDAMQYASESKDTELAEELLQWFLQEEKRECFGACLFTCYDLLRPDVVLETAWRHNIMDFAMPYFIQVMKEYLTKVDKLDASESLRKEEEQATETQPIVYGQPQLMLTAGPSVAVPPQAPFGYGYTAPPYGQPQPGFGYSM

[7] = target: NIT1 C165 (Q86X76) (Homo sapiens, UniProt Q86X76); assay: Competitive isoTOP-ABPP in situ; format: cell-based; details: fragment 4 at 100 μM, MDA-MB-231 cells
NIT1 C165 (Q86X76), sequence (Q86X76 14-327): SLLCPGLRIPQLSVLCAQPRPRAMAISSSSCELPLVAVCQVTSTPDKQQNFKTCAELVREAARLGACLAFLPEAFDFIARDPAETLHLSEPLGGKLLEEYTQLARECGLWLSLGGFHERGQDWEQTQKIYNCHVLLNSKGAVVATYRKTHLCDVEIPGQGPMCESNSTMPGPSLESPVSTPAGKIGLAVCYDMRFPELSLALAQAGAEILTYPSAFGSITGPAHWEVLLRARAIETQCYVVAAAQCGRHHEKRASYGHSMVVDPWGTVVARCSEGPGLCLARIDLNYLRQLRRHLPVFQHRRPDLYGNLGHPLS

T1 sequence (Q9NYL2 whole entry): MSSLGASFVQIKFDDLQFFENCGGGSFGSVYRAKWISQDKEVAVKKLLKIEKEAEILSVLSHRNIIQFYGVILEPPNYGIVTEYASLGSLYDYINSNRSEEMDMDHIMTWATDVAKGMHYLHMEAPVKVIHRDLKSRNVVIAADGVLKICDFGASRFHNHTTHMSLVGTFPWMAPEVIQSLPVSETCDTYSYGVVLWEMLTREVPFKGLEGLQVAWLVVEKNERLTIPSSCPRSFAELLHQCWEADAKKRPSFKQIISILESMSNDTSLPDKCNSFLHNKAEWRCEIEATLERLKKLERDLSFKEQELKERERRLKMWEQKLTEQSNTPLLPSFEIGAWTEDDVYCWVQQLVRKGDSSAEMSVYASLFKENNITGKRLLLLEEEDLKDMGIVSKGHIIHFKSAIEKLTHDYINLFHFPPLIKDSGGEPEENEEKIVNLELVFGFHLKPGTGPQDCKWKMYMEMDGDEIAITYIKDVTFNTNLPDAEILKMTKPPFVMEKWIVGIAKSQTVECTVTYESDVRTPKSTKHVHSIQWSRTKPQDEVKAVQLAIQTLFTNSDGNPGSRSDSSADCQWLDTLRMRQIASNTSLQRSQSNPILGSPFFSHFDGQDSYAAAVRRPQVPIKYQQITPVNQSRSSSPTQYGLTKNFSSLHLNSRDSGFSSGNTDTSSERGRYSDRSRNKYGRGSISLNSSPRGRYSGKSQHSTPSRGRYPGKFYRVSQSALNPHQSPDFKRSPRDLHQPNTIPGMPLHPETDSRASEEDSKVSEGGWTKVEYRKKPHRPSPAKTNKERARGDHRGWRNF

SMILES: O=C(CCl)N1CCC(C(O)(c2ccccc2)c2ccccc2)CC1 [compound 20]
catalytic activity of WT-IDH1 (NADP+ to NADPH) [3]: blocked in a concentration-dependent manner

SMILES: COC(=O)/C=C/C(=O)OC [DMF, dimethyl fumarate]
T cell viability [4]: did not impair | sensitivity of activation of Nrf2(+/+) and (-/-) T cells [5]: similarly sensitive

Second part, the compound after the results:

blockade of probe 59 labeling of MLTK (in words) [1]: inactive
SMILES: O=C(CCl)Nc1cc(C(F)(F)F)cc(C(F)(F)F)c1 [compound 3]

PRMT1-catalyzed methylation of histone 4 [2]: inhibited
SMILES: Cn1cc(S(=O)(=O)N2CCOCC2)cc1C(=O)NC(=O)CCl [compound 11]

isoTOP-ABPP reactivity profile (ratio) 4_100 μM_in-situ_231 [6]: 2.1 | isoTOP-ABPP reactivity profile (ratio) 4_100 μM_in-situ_231 [7]: 0.9
SMILES: COc1ccc(C2CC(c3cccs3)=NN2C(=O)CCl)cc1 (stereo not shown) [compound 4]

From US10670605B2, “Cysteine reactive probes and uses thereof” (The Scripps Research Institute, priority 2015, dated 2020)
